In PubChem BioAssay (NCI):
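Protocol summary: plate cells (96-well), add compound at 5 concentrations, incubate 48 h, interpolate endpoints linearly. Here, GI50 denotes the concentration required for 50% inhibition of growth. TGI: concentration producing complete growth inhibition.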

What was measured:
Experiment in all cases: DTP human tumour cell line panel, 48 h
TK-10 renal = test system: TK-10 renal
HS 578T breast = test system: HS 578T breast
KM12 colon = test system: KM12 colon
MDA-MB-435 = test system: MDA-MB-435
MDA-MB-231 breast = test system: MDA-MB-231 breast
OVCAR-4 ovarian = test system: OVCAR-4 ovarian
RPMI-8226 leukemia = test system: RPMI-8226 leukemia
HL-60(TB) leukemia = test system: HL-60(TB) leukemia
NCI/ADR-RES ovarian = test system: NCI/ADR-RES ovarian
HCT-116 colon = test system: HCT-116 colon
U251 CNS = test system: U251 CNS
SK-MEL-2 melanoma = test system: SK-MEL-2 melanoma
SNB-19 CNS = test system: SNB-19 CNS
CCRF-CEM leukemia = test system: CCRF-CEM leukemia
NCI-H226 lung = test system: NCI-H226 lung
SK-OV-3 ovarian = test system: SK-OV-3 ovarian
OVCAR-8 ovarian = test system: OVCAR-8 ovarian
SK-MEL-28 melanoma = test system: SK-MEL-28 melanoma
MCF7 breast = test system: MCF7 breast
LOX IMVI melanoma = test system: LOX IMVI melanoma
M14 melanoma = test system: M14 melanoma
DU-145 prostate = test system: DU-145 prostate
SW-620 colon = test system: SW-620 colon
NCI-H522 lung = test system: NCI-H522 lung
NCI-H460 lung = test system: NCI-H460 lung
SR leukemia = test system: SR leukemia
CAKI-1 renal = test system: CAKI-1 renal
SF-295 CNS = test system: SF-295 CNS
IGROV1 ovarian = test system: IGROV1 ovarian
HCT-15 colon = test system: HCT-15 colon
OVCAR-3 ovarian = test system: OVCAR-3 ovarian
K-562 leukemia = test system: K-562 leukemia
A498 renal = test system: A498 renal
HT29 colon = test system: HT29 colon
HOP-92 NSCLC = test system: HOP-92 NSCLC
ACHN renal = test system: ACHN renal
SN12C renal = test system: SN12C renal
EKVX NSCLC = test system: EKVX NSCLC
MALME-3M melanoma = test system: MALME-3M melanoma
UACC-62 melanoma = test system: UACC-62 melanoma
HOP-62 NSCLC = test system: HOP-62 NSCLC
SF-539 CNS = test system: SF-539 CNS
NCI-H23 lung = test system: NCI-H23 lung
OVCAR-5 ovarian = test system: OVCAR-5 ovarian
SF-268 CNS = test system: SF-268 CNS
SNB-75 CNS = test system: SNB-75 CNS
PC-3 prostate = test system: PC-3 prostate
COLO 205 colon = test system: COLO 205 colon
SK-MEL-5 melanoma = test system: SK-MEL-5 melanoma
786-0 renal = test system: 786-0 renal
UACC-257 melanoma = test system: UACC-257 melanoma
RXF 393 renal = test system: RXF 393 renal
BT-549 breast = test system: BT-549 breast
A549 NSCLC = test system: A549 NSCLC

For O=S(=O)(Nc1ccc(-c2nc(-c3cccc(O)c3)c(-c3ccnc(Br)c3)[nH]2)cc1)c1ccccc1, the GI50 (TK-10 renal) was 3.04 µM, the TGI (TK-10 renal) was 9.95 µM and the GI50 (HS 578T breast) was 1.5 µM. The TGI (HS 578T breast) was 4.39 µM, the GI50 (KM12 colon) was 2.32 µM and the TGI (KM12 colon) was 5.99 µM. For the same compound, the GI50 (MDA-MB-435) was 2.2 µM, the TGI (MDA-MB-435) was 6.54 µM and the GI50 (MDA-MB-231 breast) was 2.71 µM. It also gave a TGI (MDA-MB-231 breast) of 11.7 µM, a GI50 (OVCAR-4 ovarian) of 3.09 µM and a TGI (OVCAR-4 ovarian) of 15.1 µM. It also gave a GI50 (RPMI-8226 leukemia) of 2.35 µM, a TGI (RPMI-8226 leukemia) of 6.63 µM and a GI50 (HL-60(TB) leukemia) of 2.44 µM. The TGI (HL-60(TB) leukemia) was 6.46 µM, the GI50 (NCI/ADR-RES ovarian) was 3.04 µM and the TGI (NCI/ADR-RES ovarian) was 32 µM. It also gave a GI50 (HCT-116 colon) of 2.43 µM, a TGI (HCT-116 colon) of 7.16 µM and a GI50 (U251 CNS) of 2.71 µM. It also gave a TGI (U251 CNS) of 10.8 µM, a GI50 (SK-MEL-2 melanoma) of 2.41 µM and a TGI (SK-MEL-2 melanoma) of 6.21 µM. It also gave a GI50 (SNB-19 CNS) of 3.32 µM, a TGI (SNB-19 CNS) of 15.5 µM and a GI50 (CCRF-CEM leukemia) of 1.91 µM. The TGI (CCRF-CEM leukemia) was over 100 µM, the GI50 (NCI-H226 lung) was 2.25 µM and the TGI (NCI-H226 lung) was 7.27 µM. It also gave a GI50 (SK-OV-3 ovarian) of 2.76 µM, a TGI (SK-OV-3 ovarian) of 7.34 µM and a GI50 (OVCAR-8 ovarian) of 2.84 µM. For the same compound, the TGI (OVCAR-8 ovarian) was 9.74 µM, the GI50 (SK-MEL-28 melanoma) was 2.86 µM and the TGI (SK-MEL-28 melanoma) was 9.36 µM. It also gave a GI50 (MCF7 breast) of 2.3 µM, a TGI (MCF7 breast) of 7.3 µM and a GI50 (LOX IMVI melanoma) of 1.74 µM. For the same compound, the TGI (LOX IMVI melanoma) was 3.29 µM, the GI50 (M14 melanoma) was 2.5 µM and the TGI (M14 melanoma) was 8.55 µM. For the same compound, the GI50 (DU-145 prostate) was 3.24 µM, the TGI (DU-145 prostate) was 10.9 µM and the GI50 (SW-620 colon) was 2.84 µM. The TGI (SW-620 colon) was 10.6 µM, the GI50 (NCI-H522 lung) was 2.48 µM and the TGI (NCI-H522 lung) was 9.95 µM. The GI50 (NCI-H460 lung) was 2.14 µM, the TGI (NCI-H460 lung) was 4.71 µM and the GI50 (SR leukemia) was 2.29 µM. It also gave a TGI (SR leukemia) of over 100 µM, a GI50 (CAKI-1 renal) of 2.15 µM and a TGI (CAKI-1 renal) of 7.51 µM. For the same compound, the GI50 (SF-295 CNS) was 1.9 µM, the TGI (SF-295 CNS) was 4.25 µM and the GI50 (IGROV1 ovarian) was 2.88 µM. The TGI (IGROV1 ovarian) was 11.3 µM, the GI50 (HCT-15 colon) was 1.97 µM and the TGI (HCT-15 colon) was 4.76 µM. The GI50 (OVCAR-3 ovarian) was 2.07 µM, the TGI (OVCAR-3 ovarian) was 4.82 µM and the GI50 (K-562 leukemia) was 2.27 µM. For the same compound, the TGI (K-562 leukemia) was over 100 µM, the GI50 (A498 renal) was 0.364 µM and the TGI (A498 renal) was 3.67 µM. It also gave a GI50 (HT29 colon) of 3.17 µM, a TGI (HT29 colon) of 18.3 µM and a GI50 (HOP-92 NSCLC) of 1.69 µM. It also gave a TGI (HOP-92 NSCLC) of 4.9 µM, a GI50 (ACHN renal) of 2.55 µM and a TGI (ACHN renal) of 6.96 µM. For the same compound, the GI50 (SN12C renal) was 2.91 µM, the TGI (SN12C renal) was 13.2 µM and the GI50 (EKVX NSCLC) was 2.55 µM. It also gave a TGI (EKVX NSCLC) of 8.09 µM, a GI50 (MALME-3M melanoma) of 2.1 µM and a TGI (MALME-3M melanoma) of 6.89 µM. For the same compound, the GI50 (UACC-62 melanoma) was 1.91 µM, the TGI (UACC-62 melanoma) was 4.97 µM and the GI50 (HOP-62 NSCLC) was 2.42 µM. It also gave a TGI (HOP-62 NSCLC) of 6.43 µM, a GI50 (SF-539 CNS) of 2.01 µM and a TGI (SF-539 CNS) of 4.75 µM. It also gave a GI50 (NCI-H23 lung) of 2.18 µM, a TGI (NCI-H23 lung) of 6.11 µM and a GI50 (OVCAR-5 ovarian) of 4.34 µM. For the same compound, the TGI (OVCAR-5 ovarian) was 22.7 µM, the GI50 (SF-268 CNS) was 3.18 µM and the TGI (SF-268 CNS) was 13.7 µM. It also gave a GI50 (SNB-75 CNS) of 1.3 µM, a TGI (SNB-75 CNS) of 7.18 µM and a GI50 (PC-3 prostate) of 2.12 µM. The TGI (PC-3 prostate) was 6.82 µM, the GI50 (COLO 205 colon) was 2.42 µM and the TGI (COLO 205 colon) was 6.81 µM. The GI50 (SK-MEL-5 melanoma) was 2.4 µM, the TGI (SK-MEL-5 melanoma) was 5.82 µM and the GI50 (786-0 renal) was 2.51 µM. The TGI (786-0 renal) was 7.48 µM, the GI50 (UACC-257 melanoma) was 2.53 µM and the TGI (UACC-257 melanoma) was 7.15 µM. It also gave a GI50 (RXF 393 renal) of 1.93 µM, a TGI (RXF 393 renal) of 4.36 µM and a GI50 (BT-549 breast) of 2.49 µM. The TGI (BT-549 breast) was 6.76 µM, the GI50 (A549 NSCLC) was 3 µM and the TGI (A549 NSCLC) was 33.1 µM.
